SMILES strings stand for the structures.

Data set [1] can be described thus: Solid-state characterization of Form III (GVS, TGA). Format: physicochemical.
Data set [2] in a line: ICH M7 class of impurity (DNA reactive / mutagenic impurities).
The nature of data set [3]: Body weight by treatment group, Example 5 study. Format: in vivo, human. An excerpt: Treatment with the chemically and/or enantiomerically pure aticaprant described herein, e.g., chemically and/or enantiomerically pure crystalline Form III of aticaprant, or compositions containing the same as described herein has several advantages over the treatments in the art. […] As used herein, the term “weight gain” refers to an increase in the weight of patient, relative to the weight of the patient before taking the chemically and/or enantiomerically pure aticaprant described herein, e.g., chemically and/or enantiomerically pure crystalline Form III of aticaprant, or compositions containing the same or the weight of the patient that is assessed at the time of the initial administration of the chemically and/or enantiomerically pure aticaprant described herein, e.g., chemically and/or enantiomerically pure crystalline Form III of aticaprant, or compositions containing the same. In certain embodiments, the patient may actually see a decrease in overall weight, relative to the weight of the patient before taking the chemically and/or enantiomerically pure aticaprant described herein, e.g., chemically and/or enantiomerically pure crystalline Form III of aticaprant, or compositions containing the same.
At the lead-in baseline timepoint, the mean weight for subjects in the placebo group was 76.17 kg compared to 78.66 in the aticaprant group. After 6 weeks in the double-blind treatment phase, the mean weight in the placebo group was 75.75 kg compared to 78.57 kg in the aticaprant group. […] This is unexpected because other adjunctive treatments for MDD result in a mean weight increase. See, Thase M, et al. J Clin Psych. 2015: 76 (9), 1224-1231; Thase, J Clin Psych. 2015, 76 (9): 1232-1240; El Khalili, Int J Neuropsychopharmacol. 2010, 13, 917-932; Marcus, J. Clin. Psychopharmacol. […] Nashville, Tenn, ACNP, 2008; Earley, American College of Neuropsychopharmacology, 2007, Annual Meeting Abstracts (Boca Raton, Fla, Dec. 9-13, 2007). Nashville, TN, ACNP, 2007). See, Table 48.

As for `Cc1cc(C)cc([C@@H]2CCCN2Cc2ccc(Oc3ccc(C(N)=O)cc3F)cc2)c1` [Form III], in data set [1], the TGA degradation onset result was “Degradation onset ~250 °C” and the “XRPD after GVS” value is given as “XRPD unchanged after GVS”.

Regarding `Cc1cc(C)cc([C@@H]2CCCN2Cc2ccc(Oc3ccc(CN4CCC[C@H]4c4cc(C)cc(C)c4)cc3)cc2)c1` [Impurity 1], the “Impurity Class (ICH M7 Guideline)” value in data set [2] was “Class 5”.

Consider `Cc1cc(C)cc(C2CCCN2Cc2ccc(Oc3ccc(C(N)=O)cc3F)cc2)c1` (stereo not drawn) [aticaprant, 3-fluoro-4-4-2-(3,5-dimethylphenyl) pyrrolidin-1-yl-methylphenoxybenzamide], for which the “weight over the 6-week double blind treatment period” value in data set [3] (both groups) is reported as “remained relatively stable”. Moreover, in data set [3] (n = 85), the “Mean weight, Absolute Change (Withdrawal − Lead-in)” value was -0.09 kg; the “Mean weight, Lead-in Baseline, mean (SE)” value is 78.66 (1.65) kg; the “Mean weight, Relative % Change” value is on record as −0.11%; the “Mean weight, Screening, mean (SE)” value is listed as 78.42 (1.65) kg. In addition, in data set [3] (n = 85, after 6 weeks double-blind treatment), the “Mean weight, Withdrawal Baseline, mean (SE)” value is 78.57 (1.71) kg.

(Values after patent US20250326714A1, “PURE FORMS OF CRYSTALLINE ATICAPRANT” (Janssen Pharmaceuticals, Inc., priority 2022, published 2025).)
